The test system of this assay is lung cancer cell CRL-5802. Briefly: Cytotoxicity test of the medical composition and of camptothecin (MTT). In kind it is cell-based. To be noted: CRL-5802 cells, camptothecin concentration 1 μg/mL, treatment time 24 hours. As for the experimental part:
5000 cells/well of CRL-5802 were placed in a 96-well plate containing 100 μL of DMEM, followed by cultivation for 24 hours at 37° C. and 5% CO2. The cell culture medium was periodically replaced during the cultivation period. Thereafter, the medical composition described in the section of “Preparation of medical composition” was mixed with DMEM to prepare an original solution having a concentration of 250 μg/mL (the concentration of camptothecin was 10 μg/mL). The original solution was diluted with DMEM to obtain six diluted solutions such that the concentrations of camptothecin in the six diluted solutions were respectively 4 μg/mL, 2 μg/mL, 1 μg/mL, 0.2 μg/mL, 0.1 μg/mL and 0.04 μg/mL. The original solution and the six diluted solutions were added into the respective wells containing cell s such that the final concentrations of camptothecin were adjusted to 5 μg/mL, 2 μg/mL, 1 μg/mL, 0.5 μg/mL, 0.1 μg/mL, 0.05 μg/mL, and 0.02 μg/mL respectively (experimental groups). The cells in the control group were cultured with DMEM without addition of the medical composition. The cells were further cultivated for 24 hours. […] The absorbance of each of the wells containing cells at 490 nm was recorded, thereby calculating the cell survival rate based on the aforesaid equation. […]

The source of these data is patent US20120264830A1, “CHONDROITIN SULFATE-POLYCAPROLACTONE COPOLYMER, METHOD FOR PREPARING THE SAME AND APPLICATION THEREOF” (KAOHSIUNG MEDICAL UNIVERSITY, priority 2011, published 2012).

`CC[C@@]1(O)C(=O)OCc2c1cc1n(c2=O)Cc2cc3ccccc3nc2-1` [camptothecin] yielded a cell survival rate of 30%.
